# From ChEMBL document CHEMBL4052770, “Synthesis and in vitro antiproliferative activities of (5-aryl-1,2,4-oxadiazole-3-yl) methyl d-ribofuranosides” (2017)
# How the values were obtained:
# Format in all cases: functional
# A549 = assay: Antiproliferative activity against human A549 cells after 48 hrs by sulforhodamine B assay; details: A549, 48 h
# HBL-100 = assay: Antiproliferative activity against human HBL100 cells after 48 hrs by sulforhodamine B assay; details: HBL-100, 48 h
# SW1573 = assay: Antiproliferative activity against human SW1573 cells after 48 hrs by sulforhodamine B assay; details: SW1573, 48 h
# T47D = assay: Antiproliferative activity against human T47D cells after 48 hrs by sulforhodamine B assay
# HeLa = assay: Antiproliferative activity against human HeLa cells after 48 hrs by sulforhodamine B assay
# WiDr = assay: Antiproliferative activity against human WiDr cells after 48 hrs by sulforhodamine B assay
GI50 (A549),GI50 (SW1573),GI50 (T47D),GI50 (HeLa),SMILES,GI50 (HBL-100),GI50 (WiDr)
37 µM,> 100 µM,55 µM,38 µM,COc1cc(C2=NOC(CO[C@@H]3O[C@H](CSc4ncn[nH]4)[C@H]4OC5(CCCC5)O[C@@H]34)C2)cc(OC)c1OC (stereo not given in full),43 µM,53 µM
13 µM,10 µM,10 µM,14 µM,Clc1ccc(-c2nc(CO[C@@H]3O[C@H](CSc4ncn[nH]4)[C@H]4OC5(CCCC5)O[C@@H]34)no2)cc1,24 µM,4.5 µM
> 100 µM,> 100 µM,> 100 µM,> 100 µM,CC1(C)O[C@H]2[C@H](OCc3noc(-c4ccc([N+](=O)[O-])cc4)n3)O[C@H](CSc3nnc(N)s3)[C@H]2O1,> 100 µM,> 100 µM
32 µM,27 µM,50 µM,15 µM,O=[N+]([O-])c1ccc(-c2nc(CO[C@@H]3O[C@H](CO)[C@H]4OC5(CCCC5)O[C@@H]34)no2)cc1,17 µM,41 µM
> 100 µM,> 100 µM,> 100 µM,> 100 µM,Cc1ccc(S(=O)(=O)OC[C@H]2O[C@@H](OCc3noc(-c4ccc([N+](=O)[O-])cc4)n3)[C@@H]3OC4(CCCC4)O[C@@H]32)cc1,> 100 µM,> 100 µM
14 µM,16 µM,19 µM,28 µM,Nc1nnc(SC[C@H]2O[C@@H](OCc3noc(-c4ccc([N+](=O)[O-])cc4)n3)[C@@H]3OC4(CCCC4)O[C@@H]32)s1,26 µM,26 µM
36 µM,38 µM,42 µM,31 µM,COc1cc(-c2nc(CO[C@@H]3O[C@H](CSc4nnc(N)s4)[C@H]4OC5(CCCC5)O[C@@H]34)no2)cc(OC)c1OC,33 µM,41 µM
15 µM,17 µM,18 µM,16 µM,Nc1nnc(SC[C@H]2O[C@@H](OCc3noc(-c4ccc(Cl)cc4)n3)[C@@H]3OC4(CCCC4)O[C@@H]32)s1,30 µM,15 µM
33 µM,> 100 µM,41 µM,30 µM,COc1cc(-n2cc(CO[C@@H]3O[C@H](CSc4ncn[nH]4)[C@H]4OC5(CCCC5)O[C@@H]34)nn2)cc(OC)c1OC,84 µM,26 µM

# Second part, the compound before the results:
SMILES,GI50 (A549),GI50 (SW1573),GI50 (T47D),GI50 (HeLa),GI50 (HBL-100),GI50 (WiDr)
CC1(C)O[C@H]2[C@H](OCc3noc(-c4ccc([N+](=O)[O-])cc4)n3)O[C@H](CSc3ncn[nH]3)[C@H]2O1,90 µM,> 100 µM,> 100 µM,89 µM,> 100 µM,> 100 µM
COc1cc(-c2cc(CO[C@@H]3O[C@H](CSc4ncn[nH]4)[C@H]4OC5(CCCC5)O[C@@H]34)on2)cc(OC)c1OC,59 µM,97 µM,94 µM,67 µM,87 µM,74 µM
CC(=O)OC[C@H]1O[C@@H](OCc2noc(-c3ccc([N+](=O)[O-])cc3)n2)[C@@H]2OC3(CCCC3)O[C@@H]21,29 µM,29 µM,52 µM,17 µM,23 µM,36 µM
CC1(C)O[C@H]2[C@H](OCc3noc(-c4ccc([N+](=O)[O-])cc4)n3)O[C@H](CO)[C@H]2O1,99 µM,60 µM,> 100 µM,99 µM,99 µM,> 100 µM
O=[N+]([O-])c1ccc(-c2nc(CO[C@@H]3O[C@H](CSc4ncn[nH]4)[C@H]4OC5(CCCC5)O[C@@H]34)no2)cc1,10 µM,15 µM,20 µM,20 µM,24 µM,20 µM
COc1cc(-c2nc(CO[C@@H]3O[C@H](CSc4ncn[nH]4)[C@H]4OC5(CCCC5)O[C@@H]34)no2)cc(OC)c1OC,28 µM,36 µM,44 µM,37 µM,34 µM,42 µM
